From patent US6914045B2, “Glycopeptide antibiotics” (Wyeth Holdings Corporation, priority 2001, dated 2005)
≈ marks a conversion by molar mass, not a printed value.

Legend:
Test in all cases: in vitro antibacterial evaluation, MIC by broth dilution
Assay type in all cases: cell-based
Streptococcus sp. = conditions: broth dilution, 18 hours at 35° C.; for MIC Streptococcus pneumoniae (ATCC 6301): strain ATCC 6301; for MIC Streptococcus pneumoniae (GC 1894): strain GC 1894; for MIC Streptococcus pyogenes (GC 4563): strain GC 4563; for MIC Streptococcus agalactiae (GC 4564): strain GC 4564; for MIC Streptococcus pneumoniae (GC 4565): strain GC 4565
In short: (§1)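 Read-out: the lowest concentration at which the test strain fails to grow. Serial dilutions (64-0.06 μg/mL) in Muller-Hinton II […], 5×10^5 CFU/mL inoculum, NCCLS M7-A2 procedure.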

Enterococcus sp. = conditions: broth dilution, 18 hours at 35° C.; for MIC Enterococcus faecalis (ATCC 29212): strain ATCC 29212; for MIC Enterococcus faecalis (GC 2242): strain GC 2242; for MIC Enterococcus faecium (GC 2243): strain GC 2243; for MIC Enterococcus faecalis (GC 2691): strain GC 2691; for MIC Enterococcus faecalis (GC 3059): strain GC 3059; for MIC Enterococcus faecalis (GC 4552): strain GC 4552; for MIC Enterococcus faecalis (GC 4553): strain GC 4553; for MIC Enterococcus faecalis (GC 4554): strain GC 4554; for MIC Enterococcus faecium (GC 4556): strain GC 4556; for MIC Enterococcus faecium (GC 4557): strain GC 4557; for MIC Enterococcus avium (GC 4558): strain GC 4558; for MIC Enterococcus faecalis (GC 6189): strain GC 6189
In short: as §1

Staphylococcus sp. = conditions: broth dilution, 18 hours at 35° C.; for MIC Staphylococcus aureus (GC 1131): strain GC 1131
In short: as §1

Escherichia coli = test system: Escherichia coli
In short: as §1

CC(c1ccccc1)C1NC(=O)CNC(=O)C(CO)NC(=O)C(C(O)C2CNC(=N)N2C2OC(CO)C(O)C(O)C2O)NC(=O)C(C(O)C2CNC(=N)N2)NC(=O)C(Cc2ccc(OC3OC(CO)C(OC4OC5COC(c6ccc(C=Cc7ccccc7)cc6)OC5C(O)C4O)C(O)C3O)cc2)NC1=O (centres unmarked) [Example 172]
MIC Streptococcus pneumoniae (ATCC 6301) (Streptococcus sp.; inoculum 5×10^5 CFU/mL): <0.06 µg/mL | MIC Streptococcus pneumoniae (GC 1894) (Streptococcus sp.; inoculum 5×10^5 CFU/mL): <0.06 µg/mL | MIC Streptococcus pyogenes (GC 4563) (Streptococcus sp.; inoculum 5×10^5 CFU/mL): 0.12 µg/mL (≈ 0.0808 µM) | MIC Streptococcus agalactiae (GC 4564) (Streptococcus sp.; inoculum 5×10^5 CFU/mL): <0.06 µg/mL | MIC Streptococcus pneumoniae (GC 4565) (Streptococcus sp.; inoculum 5×10^5 CFU/mL): <0.06 µg/mL | MIC Streptococcus pneumoniae (ATCC 6301) (Streptococcus sp.): <0.06 µg/mL | MIC Streptococcus pneumoniae (GC 1894) (Streptococcus sp.): <0.06 µg/mL | MIC Streptococcus pyogenes (GC 4563) (Streptococcus sp.): 0.12 µg/mL (≈ 0.0808 µM) | MIC Streptococcus agalactiae (GC 4564) (Streptococcus sp.): <0.06 µg/mL | MIC Streptococcus pneumoniae (GC 4565) (Streptococcus sp.): <0.06 µg/mL | MIC Enterococcus faecalis (ATCC 29212) (Enterococcus sp.; inoculum 5×10^5 CFU/mL): 8 µg/mL (≈ 5.39 µM) | MIC Enterococcus faecalis (GC 2242) (Enterococcus sp.; inoculum 5×10^5 CFU/mL): 4 µg/mL (≈ 2.69 µM) | MIC Enterococcus faecium (GC 2243) (Enterococcus sp.; inoculum 5×10^5 CFU/mL): 8 µg/mL (≈ 5.39 µM) | MIC Enterococcus faecalis (GC 2691) (Enterococcus sp.; inoculum 5×10^5 CFU/mL): 4 µg/mL (≈ 2.69 µM) | MIC Enterococcus faecalis (GC 3059) (Enterococcus sp.; inoculum 5×10^5 CFU/mL): 8 µg/mL (≈ 5.39 µM) | MIC Enterococcus faecalis (GC 4552) (Enterococcus sp.; inoculum 5×10^5 CFU/mL): 8 µg/mL (≈ 5.39 µM) | MIC Enterococcus faecalis (GC 4553) (Enterococcus sp.; inoculum 5×10^5 CFU/mL): 4 µg/mL (≈ 2.69 µM) | MIC Enterococcus faecalis (GC 4554) (Enterococcus sp.; inoculum 5×10^5 CFU/mL): 4 µg/mL (≈ 2.69 µM) | MIC Enterococcus faecium (GC 4556) (Enterococcus sp.; inoculum 5×10^5 CFU/mL): 8 µg/mL (≈ 5.39 µM) | MIC Enterococcus faecium (GC 4557) (Enterococcus sp.; inoculum 5×10^5 CFU/mL): 8 µg/mL (≈ 5.39 µM) | MIC Enterococcus avium (GC 4558) (Enterococcus sp.; inoculum 5×10^5 CFU/mL): 4 µg/mL (≈ 2.69 µM) | MIC Enterococcus faecalis (GC 6189) (Enterococcus sp.; inoculum 5×10^5 CFU/mL): 2 µg/mL (≈ 1.35 µM) | MIC Enterococcus faecalis (ATCC 29212) (Enterococcus sp.): 8 µg/mL (≈ 5.39 µM) | MIC Enterococcus faecalis (GC 2242) (Enterococcus sp.): 4 µg/mL (≈ 2.69 µM) | MIC Enterococcus faecium (GC 2243) (Enterococcus sp.): 8 µg/mL (≈ 5.39 µM) | MIC Enterococcus faecalis (GC 2691) (Enterococcus sp.): 4 µg/mL (≈ 2.69 µM) | MIC Enterococcus faecalis (GC 3059) (Enterococcus sp.): 8 µg/mL (≈ 5.39 µM) | MIC Enterococcus faecalis (GC 4552) (Enterococcus sp.): 8 µg/mL (≈ 5.39 µM) | MIC Enterococcus faecalis (GC 4553) (Enterococcus sp.): 4 µg/mL (≈ 2.69 µM) | MIC Enterococcus faecalis (GC 4554) (Enterococcus sp.): 4 µg/mL (≈ 2.69 µM) | MIC Enterococcus faecium (GC 4556) (Enterococcus sp.): 8 µg/mL (≈ 5.39 µM) | MIC Enterococcus faecium (GC 4557) (Enterococcus sp.): 8 µg/mL (≈ 5.39 µM) | MIC Enterococcus avium (GC 4558) (Enterococcus sp.): 4 µg/mL (≈ 2.69 µM) | MIC Enterococcus faecalis (GC 6189) (Enterococcus sp.): 2 µg/mL (≈ 1.35 µM) | MIC Staphylococcus aureus (GC 1131) (Staphylococcus sp.; inoculum 5×10^5 CFU/mL): 8 µg/mL (≈ 5.39 µM) | MIC Staphylococcus aureus (ATCC 29213) (Staphylococcus sp.; strain ATCC 29213): 4 µg/mL (≈ 2.69 µM) | MIC Staphylococcus aureus (GC 1131) (Staphylococcus sp.): 8 µg/mL (≈ 5.39 µM) | MIC Staphylococcus aureus (GC 3051) (Staphylococcus sp.; strain GC 3051): 4 µg/mL (≈ 2.69 µM) | MIC Staphylococcus aureus (GC 3053) (Staphylococcus sp.; strain GC 3053): 4 µg/mL (≈ 2.69 µM) | MIC Staphylococcus aureus (GC 4541) (Staphylococcus sp.; strain GC 4541): 4 µg/mL (≈ 2.69 µM) | MIC Staphylococcus aureus (GC 4542) (Staphylococcus sp.; strain GC 4542): 2 µg/mL (≈ 1.35 µM) | MIC Staphylococcus aureus-SMITH (GC 4543) (Staphylococcus sp.; strain GC 4543): 8 µg/mL (≈ 5.39 µM) | MIC Staphylococcus aureus (GC 4544) (Staphylococcus sp.; strain GC 4544): 8 µg/mL (≈ 5.39 µM) | MIC Staphylococcus aureus (GC 4545) (Staphylococcus sp.; strain GC 4545): 4 µg/mL (≈ 2.69 µM) | MIC Staphylococcus haemolyticus (GC 4546) (Staphylococcus sp.; strain GC 4546): 8 µg/mL (≈ 5.39 µM) | MIC Coagulase Negative Staphylococcus (GC 4547) (Staphylococcus sp.; strain GC 4547): 8 µg/mL (≈ 5.39 µM) | MIC Coagulase Negative Staphylococcus (GC 4548) (Staphylococcus sp.; strain GC 4548): 2 µg/mL (≈ 1.35 µM) | MIC Coagulase Negative Staphylococcus (GC 4549) (Staphylococcus sp.; strain GC 4549): 2 µg/mL (≈ 1.35 µM) | MIC Coagulase Negative Staphylococcus (GC 4551) (Staphylococcus sp.; strain GC 4551): 4 µg/mL (≈ 2.69 µM) | MIC Coagulase Negative Staphylococcus (GC 6257) (Staphylococcus sp.; strain GC 6257): 2 µg/mL (≈ 1.35 µM) | MIC Escherichia coli (ATCC 25922) (Escherichia coli; strain ATCC 25922, 18 hours at 35° C.): >64 µg/mL | MIC Escherichia coli (GC 4559) (Escherichia coli; strain GC 4559, 18 hours at 35° C.): >64 µg/mL | MIC Escherichia coli (GC 4560) (Escherichia coli; strain GC 4560, 18 hours at 35° C.): 2 µg/mL (≈ 1.35 µM)
